Measurements published in patent US9464093B2, “Substituted imidazo[4',5':4,5]cyclopenta[1,2-e]pyrrolo[1,2-a]pyrazines and oxazolo[4',5':4,5]cyclopenta[1,2-e]pyrrolo[1,2-a]pyrazines for treating brain cancer” (Mayo Foundation for Medical Education and Research, priority 2012, dated 2016).
Entries after “also recorded” stand apart in the source; their conditions may differ.

Experiments:
[1] = CNS pharmacokinetic study in mice (microdialysis, CE-UV); format: in vivo, C57BL/6J mice; details: 2.5 mg/kg i.p.
Procedure: The total of 90 male wild type C57BL/6J mice were used in this study. C57BL/6J mice were approximately 2 months of age and weighed 20˜25 g. All mice were housed in a temperature-controlled room ([…]) with a 12:12 light dark cycle (lights on at 0600). Purina 5001 Rodent Chow and tap water were available ad libitum at all times. Mouse use was approved by Mayo Foundation Institutional Animal Use and Care Committee (IACUC) and was consistent with NIH Guide for the Care and Use of Laboratory Animals. Agelastatin A was synthesized by Professor Takehiko Yoshimitsu at Graduate School of Pharmaceutical Sciences, Osaka University, Osaka, Japan. Professor Yoshimitsu has described details on the synthesis of this compound. Purity as determined by NMR spectra is >99%.
A total of five mice were used in microdialysis experiments. On the day of surgery, mice were anesthetized with gasiform isoflurane (1% isoflurane in a mixture of 20% oxygen and 80% nitrogen gas) and immobilized in a stereotaxic frame (KOPF Instruments, Tujunga, Calif.). […]
Briefly, the capillaries were preconditioned with 1 M sodium hydroxide for 2 min, water for 2 min and running buffer [100 mmol/1 solution of ammonium acetate (adjusted to pH 3.1 with acetic acid)-acetonitrile (50:50, v/v)] for 3 min. […] CNS penetration was determined as the ratio of CSF and blood area under the curve (AUC).

Raji lymphoma cells [2] = assay: Matrigel invasion assay; format: cell-based; details: 1 hour pre-treatment with log dilutions
Procedure: Invasion assays were performed in triplicate using BD Biocoat Matrigel Invasion Chamber (BD Biosciences: Sparks, Md.) according to manufacturer's instructions (8-μm pore-size). Five percent serum was used as a chemoattractant in the bottom chamber. […] Viability of Raji cells was ascertained by Trypan blue test after the treatment with AA. Statistical analysis was performed using two-tailed Student's T-Test.

Raji lymphoma cells [3] = assay: Raji orthotopic murine CNS lymphoma model; format: in vivo, athymic mice; details: 1, 2.5 or 5 mg/kg i.p. for four days; vs vehicle control
Procedure: Athymic mice (nu/nu; 8-10 weeks old) were anesthetized with gasiform isofluorane and 25,000 Raji cells transfected with luciferase (as described in in vitro study) were stereotactically injected into the left cerebral hemisphere at coordinates (AP: 0.5 mm, LM: 2.5 mm, DV: 3 mm) from the bregma and skull at a volume of 5 μl and at a rate of 1 μl/min. The needle was left in place for 5 min after injection.
BLI was conducted using a Xenogen Lumina optical imaging system (Caliper Life Sciences, Hopkinton, Mass.). Mice were anesthetized with isofluorane before intraperitoneal injections of luciferin at a dose of 150 mg/kg, providing a saturating substrate concentration for luciferase enzyme. Peak luminescent signals were recorded 10 minutes after luciferin injection. Regions of interest encompassing the intracranial area of signal were defined using Living Image software, and the total photons/s/steradian/cm^2 was recorded.
Raji murine CNS lymphoma model was created as described in in vivo study section. After bioluminesence imaging (BLI) scanning on day 4 post intracerebral injection, animals were randomly assigned to four different groups. […] […] BLI was used for real time monitoring of tumor growth. Differences in tumor growth were statistically analyzed by ANOVA.

NFkB signaling = assay: In vivo NFkB signaling of Raji cells implanted in murine brain (BLI); set-up: species or system athymic mice; details: 2.5 mg/kg and 5 mg/kg intraperitoneally the day after implantation
Procedure: An in-vivo experiment was also performed to assess impact of Agelastatin A on NFkB signaling in Raji cells implanted inside the murine brain. In serum free medium, Raji cells were transfected with NFkB reporter system. 25,000 cells were intracerebrally injected into athymic mice. […] Bioluminescence imaging (BLI) of NFkB activity of intracerebral Raji lymphoma cells were measured on day 4 post intracerebral implantation.

Raji lymphoma cells [4] = assay: Ex vivo murine brain slice invasion assay; format: cell-based; details: cells pretreated with 100 nM for four days; day 5 post-incubation; vs DMSO
Procedure: The impact of Agelastatin A on the brain invasiveness of Raji B lymphoma cells was assessed ex vivo using a modified murine brain slice invasion assay. Briefly, these cells were first pre-transfected with luciferase (SP-DiI; Molecular Probes) just prior to invasion assays. Slice cultures of whole brains were produced from C57 mice. Two-month-old male C57BL/6J mice were sacrificed by CO2 inhalation. Mice brains were removed, placed into sterile ice-cold PBS, and then coronally sectioned with a 1 mm coronal brain matrix into 1 mm slices at +2.00 to −1.00 bregma. Brain slices were placed aseptically onto transwell (8 μm pore size) membranes in six-well dishes. Culture media (DMEM, 10% FCS, […], 100 U/ml penicillin, 100 μg/ml streptomycin, and 2.5 μg/ml amphotericin B) was added into each well to a point just below that which would cover the brain slice. […] Cells were allowed to attach to the brain surface for one hour before the media was adjusted to just cover the surface of the slice. After 5 days incubation, the extent of lymphoma cell invasion into the brain slice was quantitated by bioluminesence imaging (BLI) in both slice and media. Brain slices were fixed in 4% paraformaldehyde for CD20 staining to identify Raji cells, which had invaded the brain slices. […]

In the case of `CN1C(=O)N[C@H]2[C@@H]3NC(=O)c4ccc(Br)n4[C@@H]3C[C@]21O` [AA, agelastatin A, reference compound], the “penetration into brain and eye tissue compartments” value [1] is reported as “shown to penetrate into the brain and eye tissue compartments; also recorded: can penetrate the brain and eye tissue compartments”, the “Raji lymphoma cell invasion (Matrigel)” value (Raji lymphoma cells [2]) is reported as “significantly decreased invasiveness; also recorded: blocks Raji lymphoma cell invasion” and the “CNS lymphoma tumor growth (BLI)” value (Raji lymphoma cells [3]) is reported as “significantly decreased the tumor growth; also recorded: therapeutic effect of AA treatment on the CNS lymphoma growth”. For the same compound, the “survival (Kaplan-Meier)” value (Raji lymphoma cells [3]) was “significantly prolonged the survival; also recorded: survival prolongation”, the “NFkB signaling activity of Raji cells implanted in the murine brain (BLI)” value (NFkB signaling) was “can impact the molecular signaling activity (NFkB signaling pathway) in a brain tumor; also recorded: decreased the NFkB signaling activity” and the “brain invasiveness of Raji lymphoma cells (ex vivo brain slice)” value (Raji lymphoma cells [4]) was “significantly decreased and disabled the brain invasiveness; also recorded: decreases the brain invasiveness of Raji lymphoma cells; also recorded: No AA-treated lymphoma cells were found in the brain slice”.
